{"source": "ChEMBL document CHEMBL1124610", "about": "“Tyrphostins I: synthesis and biological activity of protein tyrosine kinase inhibitors” (J Med Chem, 1989)", "key": {"[1]": {"molecular_target": "T1, Epidermal growth factor receptor (Homo sapiens, UniProt P00533)", "T1 sequence (P00533 whole entry)": "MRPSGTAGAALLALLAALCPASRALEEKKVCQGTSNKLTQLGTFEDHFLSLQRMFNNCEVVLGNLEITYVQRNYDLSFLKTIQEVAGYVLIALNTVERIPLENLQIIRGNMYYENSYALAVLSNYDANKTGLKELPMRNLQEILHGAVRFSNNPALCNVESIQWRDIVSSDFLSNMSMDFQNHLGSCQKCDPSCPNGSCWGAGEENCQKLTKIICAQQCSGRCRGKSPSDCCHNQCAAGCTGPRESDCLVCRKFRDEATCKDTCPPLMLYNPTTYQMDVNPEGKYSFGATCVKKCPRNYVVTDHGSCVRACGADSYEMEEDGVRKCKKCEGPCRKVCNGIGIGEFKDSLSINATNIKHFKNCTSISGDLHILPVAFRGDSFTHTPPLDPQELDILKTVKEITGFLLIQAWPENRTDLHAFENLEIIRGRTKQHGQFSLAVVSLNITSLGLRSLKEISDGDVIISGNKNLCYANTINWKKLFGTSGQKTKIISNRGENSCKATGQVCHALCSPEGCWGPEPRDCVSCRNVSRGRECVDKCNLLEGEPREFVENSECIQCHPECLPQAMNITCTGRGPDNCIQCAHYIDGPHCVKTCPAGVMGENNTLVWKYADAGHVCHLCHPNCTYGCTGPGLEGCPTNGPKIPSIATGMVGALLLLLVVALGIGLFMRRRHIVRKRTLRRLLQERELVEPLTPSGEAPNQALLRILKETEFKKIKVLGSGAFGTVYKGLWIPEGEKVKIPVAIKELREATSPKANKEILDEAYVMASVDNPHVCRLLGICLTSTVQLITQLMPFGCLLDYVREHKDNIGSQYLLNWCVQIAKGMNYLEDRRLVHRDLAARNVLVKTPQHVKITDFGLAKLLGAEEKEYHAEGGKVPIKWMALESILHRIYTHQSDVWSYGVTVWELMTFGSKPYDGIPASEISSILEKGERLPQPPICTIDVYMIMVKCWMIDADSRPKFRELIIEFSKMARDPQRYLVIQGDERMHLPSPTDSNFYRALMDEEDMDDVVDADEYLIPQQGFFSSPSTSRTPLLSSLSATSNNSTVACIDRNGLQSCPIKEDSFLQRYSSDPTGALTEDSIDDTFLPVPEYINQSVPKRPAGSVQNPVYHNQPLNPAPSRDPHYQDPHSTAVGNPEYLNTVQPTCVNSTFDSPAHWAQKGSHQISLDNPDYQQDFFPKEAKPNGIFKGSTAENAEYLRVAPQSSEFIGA", "assay": "(§1) Inhibitory concentration of EGF dependent autophosphorylation of epidermal growth factor receptor kinase; call rule not given here"}, "[2]": {"molecular_target": "T1, Epidermal growth factor receptor", "assay": "as §1", "remark": "listed apart in the source"}, "[3]": {"molecular_target": "T1, Epidermal growth factor receptor", "assay": "Inhibition of EGF-dependent epidermal growth factor receptor autophosphorylation (inactive)"}}}
{"smiles": "COc1ccc(C=C(C#N)C#N)cc1O", "values": [{"measurement": "IC50", "setting": "[1]", "result": "> 250", "unit": "µM"}]}
{"smiles": "N#C/C(=C\\c1ccccc1)C(=O)O", "values": [{"measurement": "IC50", "setting": "[2]", "result": "> 2500", "unit": "µM"}, {"measurement": "IC50", "setting": "[1]", "result": "> 2500", "unit": "µM"}]}
{"smiles": "CC(=C(C#N)C#N)c1ccc(NC(=O)CCC(=O)O)cc1", "values": [{"measurement": "IC50", "setting": "[1]", "result": 500, "unit": "µM"}]}
{"smiles": "N#C/C(=C\\c1ccc(F)cc1)C(=O)O", "values": [{"measurement": "IC50", "setting": "[2]", "result": 2500, "unit": "µM"}, {"measurement": "IC50", "setting": "[1]", "result": 2500, "unit": "µM"}]}
{"smiles": "O=C(O)/C=C/c1ccc(O)c(O)c1", "note": "[CAFFEIC ACID]", "values": [{"measurement": "IC50", "setting": "[1]", "result": 1200, "unit": "µM"}]}
{"smiles": "N#CC(C#N)=Cc1cc(O)ccc1[N+](=O)[O-]", "values": [{"measurement": "IC50", "setting": "[1]", "result": 96, "unit": "µM"}]}
{"smiles": "N#CC(C#N)=Cc1cccc(O)c1", "values": [{"measurement": "IC50", "setting": "[1]", "result": 375, "unit": "µM"}]}
{"smiles": "N#CC(C#N)=C1C(=O)NC(=O)NC1=O", "values": [{"measurement": "IC50", "setting": "[1]", "result": 1400, "unit": "µM"}]}
{"smiles": "O=CN/C=C/c1cc(O)ccc1O", "note": "[ERBSTATIN]", "values": [{"measurement": "IC50", "setting": "[1]", "result": 14, "unit": "µM"}]}
{"smiles": "CCCCc1cc(/C=C(\\C#N)C(N)=O)cc(CCCC)c1O", "values": [{"measurement": "IC50", "setting": "[1]", "result": 55, "unit": "µM"}]}
{"smiles": "N#CC(C#N)=Cc1cc(O)c(O)c(O)c1", "note": "[TYRPHOSTIN 25]", "values": [{"measurement": "IC50", "setting": "[1]", "result": 3, "unit": "µM"}]}
{"smiles": "N#CC(C#N)=C(N)/C(C#N)=C/c1ccc(O)c(O)c1", "values": [{"measurement": "IC50", "setting": "[1]", "result": 2.5, "unit": "µM"}]}
{"smiles": "O=[N+]([O-])c1ccc(O)c(O)c1", "note": "[4-Nitrocatechol]", "values": [{"measurement": "IC50", "setting": "[3]", "result": "Not Active"}, {"measurement": "Ki", "setting": "[3]", "result": "Not Active"}]}
{"smiles": "CC(=C(C#N)C#N)c1ccc(N)cc1", "values": [{"measurement": "IC50", "setting": "[1]", "result": "> 1250", "unit": "µM"}]}
{"smiles": "N#C/C=C/c1ccc(O)cc1", "values": [{"measurement": "IC50", "setting": "[1]", "result": 2400, "unit": "µM"}]}
{"smiles": "COc1ccc(NN=C(C#N)C#N)cc1", "values": [{"measurement": "IC50", "setting": "[1]", "result": 600, "unit": "µM"}]}
{"smiles": "COc1cc(/C(C)=C(\\C#N)C(=O)O)ccc1O", "values": [{"measurement": "IC50", "setting": "[1]", "result": 1100, "unit": "µM"}]}
{"smiles": "N#CC(C#N)=Cc1ccc(F)cc1", "values": [{"measurement": "IC50", "setting": "[1]", "result": "> 1250", "unit": "µM"}]}
{"smiles": "N#CC(C#N)=Cc1ccc[nH]1", "values": [{"measurement": "IC50", "setting": "[1]", "result": 260, "unit": "µM"}]}
{"smiles": "N#CC(C#N)=C(O)c1cc(O)c(O)c(O)c1", "values": [{"measurement": "IC50", "setting": "[1]", "result": 13.5, "unit": "µM"}]}
{"smiles": "CN(C)c1ccc(/C=C(\\C#N)C(=O)O)cc1", "values": [{"measurement": "IC50", "setting": "[2]", "result": 1400, "unit": "µM"}]}
{"smiles": "N#C/C(=C\\c1ccc([N+](=O)[O-])cc1)C(=O)O", "values": [{"measurement": "IC50", "setting": "[1]", "result": 1300, "unit": "µM"}]}
{"smiles": "N#CC(C#N)=CNc1ccc(O)cc1", "values": [{"measurement": "IC50", "setting": "[1]", "result": 350, "unit": "µM"}]}
{"smiles": "N#C/C(=C\\c1ccc(O)cc1)C(N)=O", "values": [{"measurement": "IC50", "setting": "[1]", "result": 800, "unit": "µM"}]}
{"smiles": "COc1cc(C=C(C#N)C#N)cc(OC)c1O", "values": [{"measurement": "IC50", "setting": "[1]", "result": 850, "unit": "µM"}]}
{"smiles": "N#CC(C#N)=Cc1ccc(/C=C/C(=O)O)cc1", "values": [{"measurement": "IC50", "setting": "[1]", "result": 450, "unit": "µM"}]}
{"smiles": "COc1cc(C=C(C#N)C#N)cc(OC)c1", "values": [{"measurement": "IC50", "setting": "[1]", "result": "> 1250", "unit": "µM"}]}
{"smiles": "O=C(O)/C=C/c1ccc(O)cc1", "note": "[COUMARIC ACID]", "values": [{"measurement": "IC50", "setting": "[1]", "result": 3000, "unit": "µM"}]}
{"smiles": "N#C/C(=C\\c1ccc(C=O)cc1)C(=O)O", "values": [{"measurement": "IC50", "setting": "[2]", "result": 140, "unit": "µM"}, {"measurement": "IC50", "setting": "[1]", "result": 140, "unit": "µM"}]}
{"smiles": "Cc1ccc(/C=C(\\C#N)C(=O)O)cc1", "values": [{"measurement": "IC50", "setting": "[2]", "result": 1350, "unit": "µM"}]}
{"smiles": "N#CC(C#N)=Cc1ccc(N2CCOCC2)cc1", "values": [{"measurement": "IC50", "setting": "[1]", "result": "> 625", "unit": "µM"}]}
{"smiles": "COc1cc(C=C(C#N)C#N)ccc1O", "values": [{"measurement": "IC50", "setting": "[1]", "result": 200, "unit": "µM"}]}
{"smiles": "N#C/C(=C\\c1ccc(O)cc1)C(=O)O", "note": "[alpha-CYANO-4-HYDROXYCINNAMIC ACID]", "values": [{"measurement": "IC50", "setting": "[2]", "result": 308, "unit": "µM"}, {"measurement": "IC50", "setting": "[1]", "result": 308, "unit": "µM"}]}
{"smiles": "N#CC(C#N)=Cc1ccc(C=O)cc1", "values": [{"measurement": "IC50", "setting": "[1]", "result": 60, "unit": "µM"}]}
{"smiles": "N#CC(C#N)=Cc1ccc(O)cc1", "values": [{"measurement": "IC50", "setting": "[1]", "result": 560, "unit": "µM"}]}
{"smiles": "N#CC(C#N)Cc1ccc(O)cc1", "values": [{"measurement": "IC50", "setting": "[1]", "result": 6500, "unit": "µM"}]}
{"smiles": "COc1ccc(/C=C(\\C#N)C(=O)O)cc1", "values": [{"measurement": "IC50", "setting": "[2]", "result": 2500, "unit": "µM"}, {"measurement": "IC50", "setting": "[1]", "result": 2500, "unit": "µM"}]}
{"smiles": "COc1cc(C=C(C#N)C#N)cc(O)c1O", "values": [{"measurement": "IC50", "setting": "[1]", "result": 6, "unit": "µM"}]}
{"smiles": "N#C/C(=C/c1ccc[nH]1)C(=O)O", "values": [{"measurement": "IC50", "setting": "[1]", "result": 1360, "unit": "µM"}]}
{"smiles": "COc1cc(/C=C(\\C#N)C(=O)O)cc(OC)c1O", "values": [{"measurement": "IC50", "setting": "[2]", "result": 700, "unit": "µM"}, {"measurement": "IC50", "setting": "[1]", "result": 700, "unit": "µM"}]}
{"smiles": "CC(C)(C)c1cc(C=C(C#N)C#N)cc(C(C)(C)C)c1O", "note": "[TYRPHOSTIN A9]", "values": [{"measurement": "IC50", "setting": "[1]", "result": 460, "unit": "µM"}]}
{"smiles": "N#CC(C#N)=C(N)/C(C#N)=C/c1ccc(O)c([N+](=O)[O-])c1", "values": [{"measurement": "IC50", "setting": "[1]", "result": 60, "unit": "µM"}]}
{"smiles": "COc1cc(C=C(C#N)C#N)cc([N+](=O)[O-])c1O", "values": [{"measurement": "IC50", "setting": "[1]", "result": 160, "unit": "µM"}]}
{"smiles": "N#C/C(=C\\c1ccc(O)c(O)c1)C(=O)O", "values": [{"measurement": "IC50", "setting": "[2]", "result": 70, "unit": "µM"}, {"measurement": "IC50", "setting": "[1]", "result": 70, "unit": "µM"}]}
{"smiles": "N#CC(C#N)=Cc1ccc([N+](=O)[O-])c(O)c1", "values": [{"measurement": "IC50", "setting": "[1]", "result": 450, "unit": "µM"}]}
{"smiles": "N#CC(C#N)=NNc1ccc(O)cc1", "values": [{"measurement": "IC50", "setting": "[1]", "result": 225, "unit": "µM"}]}
{"smiles": "O=C(O)c1ccc(O)cc1", "note": "[PARABEN]", "values": [{"measurement": "IC50", "setting": "[3]", "result": "Not Active"}, {"measurement": "Ki", "setting": "[3]", "result": "Not Active"}]}
{"smiles": "N#C/C(=C\\c1ccc(O)c(O)c1)C(N)=O", "values": [{"measurement": "IC50", "setting": "[1]", "result": 10, "unit": "µM"}]}
{"smiles": "N#CC(C#N)=Cc1ccc(O)c([N+](=O)[O-])c1", "values": [{"measurement": "IC50", "setting": "[1]", "result": 125, "unit": "µM"}]}
{"smiles": "N#CC(C#N)=Cc1cc[n+]([O-])cc1", "values": [{"measurement": "IC50", "setting": "[1]", "result": 1300, "unit": "µM"}]}
{"smiles": "COc1cc(/C=C(\\C#N)C(=O)O)ccc1O", "values": [{"measurement": "IC50", "setting": "[2]", "result": 800, "unit": "µM"}, {"measurement": "IC50", "setting": "[1]", "result": 800, "unit": "µM"}]}
{"smiles": "N[C@@H](Cc1ccc(O)c(O)c1)C(=O)O", "note": "[LEVODOPA]", "values": [{"measurement": "IC50", "setting": "[1]", "result": 900, "unit": "µM"}]}
{"smiles": "N#CC(C#N)=Cc1ccc(C(=O)O)cc1", "values": [{"measurement": "IC50", "setting": "[1]", "result": 430, "unit": "µM"}]}
{"smiles": "N#CCNC(=O)/C(C#N)=C/c1ccc(O)cc1", "values": [{"measurement": "IC50", "setting": "[1]", "result": 625, "unit": "µM"}]}
{"smiles": "N#CC(C#N)=Cc1ccc(NC(=O)CCC(=O)O)cc1", "values": [{"measurement": "IC50", "setting": "[1]", "result": 640, "unit": "µM"}]}
{"smiles": "N#C/C(=C/c1cc(O)ccc1O)C(=O)O", "values": [{"measurement": "IC50", "setting": "[1]", "result": 75, "unit": "µM"}]}
{"smiles": "N#CC(C#N)=Cc1cc(O)cc(O)c1", "values": [{"measurement": "IC50", "setting": "[1]", "result": 37, "unit": "µM"}]}
{"smiles": "O=C(O)C(=Cc1ccc(O)cc1)C(=O)O", "values": [{"measurement": "IC50", "setting": "[1]", "result": 1500, "unit": "µM"}]}
{"smiles": "N#CC(C#N)=C(N)/C(C#N)=C/c1ccc(O)cc1", "values": [{"measurement": "IC50", "setting": "[1]", "result": 0.125, "unit": "µM"}]}
{"smiles": "N#CC(C#N)=C(N)/C(C#N)=C/c1cc(O)c(O)c(Br)c1", "values": [{"measurement": "IC50", "setting": "[1]", "result": 0.5, "unit": "µM"}]}
{"smiles": "COc1cc(C=C(C#N)C#N)cc(Br)c1O", "values": [{"measurement": "IC50", "setting": "[1]", "result": 153, "unit": "µM"}]}
{"smiles": "COc1ccc(C(O)=C(C#N)C#N)cc1", "values": [{"measurement": "IC50", "setting": "[1]", "result": 450, "unit": "µM"}]}
{"smiles": "N#CC(C#N)=C(N)/C(C#N)=C/c1cc(O)c(O)c(O)c1", "note": "[TYRPHOSTIN 51]", "values": [{"measurement": "IC50", "setting": "[1]", "result": 0.8, "unit": "µM"}]}
{"smiles": "N#CC(C#N)=C(O)c1ccc(O)cc1", "values": [{"measurement": "IC50", "setting": "[1]", "result": 230, "unit": "µM"}]}
{"smiles": "N#CC(C#N)=Cc1ccncc1", "values": [{"measurement": "IC50", "setting": "[1]", "result": 250, "unit": "µM"}]}
